For orientation: ED50 means the midpoint of the dose-response relation. Read a low ED50 as greater potency.

The structures appear in SMILES notation. Converted amounts (≈) assume the structure as drawn. “Also recorded” adds a separate entry of the source.

Series [1] has as its system Salmonella typhosa ATCC 9992. The experiment in a line: Antibacterial spectrum, agar dilution method (pH 8.0). It is filed as cell-based. Particulars: Salmonella enterica, pH 8, read-out: Minimum inhibitory concentration. (In general: In agar dilution, organisms are placed on agar that contains the substance at set levels.)
Series [2] has as its system Proteus rettgeri Booth KY 4288. The series is described as above. It is filed as cell-based. Conditions: Providencia rettgeri, read-out: Minimum inhibitory concentration.
Series [3] relates to Proteus morganii Jenkins KY 4298. Described as above. It counts as cell-based. Conditions: Morganella morganii, read-out: Minimum inhibitory concentration.
Series [4] has as its system Escherichia coli KY 8331. The description is as above. It is filed as cell-based. Conditions: KY8331, resistant to Kanamycin, Ribostamycin, Neomycin, Paromomycin and Lividomycin, read-out: Minimum inhibitory concentration.
In series [5] the test system is Streptococcus faecalis ATCC 10541. Described as above. It counts as cell-based. Particulars: Enterococcus faecalis, ATCC10541, read-out: Minimum inhibitory concentration.
For series [6], the system named is Escherichia coli KY 8314. The description is as above. It counts as cell-based. Conditions: KY8314, resistant to Streptomycin, read-out: Minimum inhibitory concentration.
Series [7] relates to Escherichia coli KY 8315. The series is described as above. It is filed as cell-based. Conditions: KY8315, resistant to Streptomycin, Kanamycin, Paromomycin and Neomycin, read-out: Minimum inhibitory concentration.
Series [8] deals with Shigella sonnei ATCC 9290. The description is as above. Particulars: ATCC9290, read-out: Minimum inhibitory concentration. It is filed as cell-based.
Series [9] deals with Escherichia coli KY 8332. Described as above. It counts as cell-based. Conditions: KY8332, resistant to Kanamycin and Tobramycin, read-out: Minimum inhibitory concentration.
The subject of series [10] is Bacillus cereus var. mycoides ATCC 9463. The experiment in a line: microbe, parasite or virus in culture. It counts as cell-based. Conditions: ATCC9463, pH 8, read-out: Minimum inhibitory concentration.
Series [11] deals with bacteria of the genus Proteus. The experiment in a line: Antibacterial activity against bacteria of the genus Proteus (in words). It counts as cell-based.
Series [12] deals with Staphylococcus aureus KY 8957. The series is described as follows: Antibacterial spectrum, agar dilution method (pH 8.0). It is filed as cell-based. Conditions: KY8957, resistant to Chloramphenicol, Streptomycin, Kanamycin B, Tetracycline and Paromomycin, read-out: Minimum inhibitory concentration.
Series [13] relates to Staphylococcus aureus KY 8953. The description is as above. It is filed as cell-based. Conditions: KY8953, resistant to Streptomycin, Kanamycin, Paromomycin, Tetracycline, Neomycin, Kanamycin B and Erythromycin, read-out: Minimum inhibitory concentration.
Series [14] deals with Staphylococcus aureus KY 8956. Described as above. It is filed as cell-based. Particulars: KY8956, resistant to Streptomycin, Paromomycin, Tetracycline, Erythromycin and Oleandomycin, read-out: Minimum inhibitory concentration.
Series [15] relates to Escherichia coli KY 8327. Described as above. Conditions: KY8327, pH 8, read-out: Minimum inhibitory concentration. It is filed as cell-based.
Series [16] deals with Pseudomonas aeruginos KY 8510. Described as above. It counts as cell-based. Particulars: KY8510, pH 8, read-out: Minimum inhibitory concentration.
Series [17] has as its system Escherichia coli KY 8302. The series is described as above. It counts as cell-based. Conditions: KY8302, resistant to Chloramphenicol, Streptomycin, Kanamycin, Paromomycin, Tetracycline and Spectinomycin, read-out: Minimum inhibitory concentration.
Series [18] concerns Staphylococcus aureus KY 8942. The description is as above. It is filed as cell-based. Particulars: KY8942, resistant to Kanamycin, Paramomycin, Streptomycin, Gentamicin and Nebramycin, read-out: Minimum inhibitory concentration.
For series [19], the system named is Escherichia coli Juhl KY 4286. The experiment in a line: In vivo test on mice infected intraperitoneally with Escherichia coli, subcutaneous treatment. The arrangement: species or system mice infected with Escherichia coli Juhl KY 4286. On the procedure:
In this respect, in vivo tests have been conducted on mice infected intraperitoneally with Escherichia coli Juhl KY 4286. The thus infected mice were treated with various concentrations of Fortimicin A by subcutaneous […]. As a result the ED50 of Fortimicin A has been determined to be 6mg/kg. In view of the excellent antibacterial activity, the present substance, Fortimicin A, is considered to be useful in medical treatment as an antibacterial substance. Moreover, in view of the foregoing wide antibacterial spectrum, Fortimicin A may also be useful as a surface antibacterial agent.

The test system of series [20] is Proteus rettgeri Hambrook KY 4289. The experiment in a line: Antibacterial spectrum, agar dilution method (pH 8.0). It counts as cell-based. Particulars: Providencia rettgeri, read-out: Minimum inhibitory concentration.
Series [21] relates to Proteus mirabilis No. 825 KY 4292. Described as above. Particulars: NO.825KY4292, read-out: Minimum inhibitory concentration. It is filed as cell-based.
In series [22] the test system is Proteus mirabilis No. 39 KY 4290. The description is as above. It is filed as cell-based. Particulars: NO.39KY4290, read-out: Minimum inhibitory concentration.
In series [23] the test system is Gram-positive and Gram-negative bacteria. The series is described as follows: Antibacterial activity against Gram-positive and Gram-negative bacteria (in words). It is filed as cell-based.
Series [24] deals with Klebsiella pneumoniae ATCC 10031. The series is described as follows: Antibacterial spectrum, agar dilution method (pH 8.0). It counts as cell-based. Particulars: ATCC10031, read-out: Minimum inhibitory concentration.
Series [25] has as its system Staphylococcus aureus ATCC 6538P. The series is described as above. It is filed as cell-based. Particulars: ATCC6538P, read-out: Minimum inhibitory concentration.
The test system of series [26] is Pseudomonas aeruginosa BMH No. 1. Described as above. It is filed as cell-based. Particulars: BMHNO.1, read-out: Minimum inhibitory concentration.
Series [27] relates to Escherichia coli ATCC 26. Described as above. Conditions: ATCC26, read-out: Minimum inhibitory concentration. It counts as cell-based.
The test system of series [28] is Escherichia coli. The series is described as follows: Antibacterial activity against resistant Escherichia coli (in words). Particulars: Escherichia coli resistant to various known antibiotics. It counts as cell-based.
The subject of series [29] is Proteus vulgaris KY 4296. The experiment in a line: Antibacterial spectrum, agar dilution method (pH 8.0). It counts as cell-based. Particulars: KY4296, resistant to nalidixic acid, read-out: Minimum inhibitory concentration.
In series [30] the test system is Proteus vulgaris Abbott JJ, KY 4295. Described as above. It counts as cell-based. Conditions: read-out: Minimum inhibitory concentration.
In series [31] the test system is Staphylococcus aureus KY 8950. The description is as above. It is filed as cell-based. Conditions: KY8950, resistant to Streptomycin, Tetracycline, Penicillin and sulfonamide, read-out: Minimum inhibitory concentration.
Series [32] concerns Escherichia coli KY 8310. The series is described as above. It is filed as cell-based. Particulars: KY8310, resistant to Chloramphenicol, Streptomycin, Kanamycin, Gentamicin, Kanamycin B, Paromomycin, Tetracycline and Spectinomycin, read-out: Minimum inhibitory concentration.
In series [33] the test system is Proteus mirabilis Finland 9 KY 4293. The description is as above. It counts as cell-based. Particulars: FINLAND9KY4293, read-out: Minimum inhibitory concentration.
Series [34] deals with Staphylococcus aureus. The experiment in a line: Antibacterial activity against resistant Staphylococcus aureus (in words). It counts as cell-based. Particulars: Staphylococcus aureus resistant to various known antibiotics.
Series [35] relates to Proteus vulgaris ATCC 6897. The experiment in a line: Antibacterial spectrum, agar dilution method (pH 8.0). It is filed as cell-based. Conditions: ATCC6897, read-out: Minimum inhibitory concentration.
Series [36] has as its system Bacillus cereus ATCC 9634. The description is as above. It is filed as cell-based. Particulars: ATCC9634, read-out: Minimum inhibitory concentration.
A short description of series [37]: Solubility of the free base. It is filed as physicochemical.
The test system of series [38] is Bacillus subtilis No. 10707. The experiment in a line: Antibacterial spectrum, agar dilution method (pH 8.0). It counts as cell-based. Particulars: read-out: Minimum inhibitory concentration.

With `COC1C(O)C(N)C(OC2OC(C(C)N)CCC2N)C(O)C1N(C)C(=O)CN` (centres unmarked) [Fortimicin A], the MIC was 0.08 µg/mL (≈ 0.197 µM) in [1]; 0.8 µg/mL (≈ 1.97 µM) in [2]; 1.6 µg/mL (≈ 3.95 µM) in series [3]; 0.3 µg/mL (≈ 0.74 µM) in [4]; 10 µg/mL (≈ 24.7 µM) in series [5]; 0.26 µg/mL (≈ 0.641 µM) in series [6]. Further, the MIC was found to be 0.13 µg/mL (≈ 0.321 µM) in series [7]; 0.3 µg/mL (≈ 0.74 µM) in series [8]; 0.3 µg/mL (≈ 0.74 µM) in series [9]; 0.6 µg/mL (≈ 1.48 µM) in series [10]; 0.32 µg/mL (≈ 0.789 µM) in [12]; 1.3 µg/mL (≈ 3.21 µM) in series [13]. The MIC in [14] amounted to 0.32 µg/mL (≈ 0.789 µM); in series [15], 0.13 µg/mL (≈ 0.321 µM); in series [16], 5 µg/mL (≈ 12.3 µM); in series [17] it was 0.26 µg/mL (≈ 0.641 µM); in series [18], 10 µg/mL (≈ 24.7 µM); in series [20], 0.41 µg/mL (≈ 1.01 µM). Also, the MIC is 0.41 µg/mL (≈ 1.01 µM) in [21]; 0.8 µg/mL (≈ 1.97 µM) in series [22]; 0.08 µg/mL (≈ 0.197 µM) in [24]; 0.04 µg/mL (≈ 0.0986 µM) in series [25]; 5 µg/mL (≈ 12.3 µM) in series [26]; 0.16 µg/mL (≈ 0.395 µM) in series [27]. The MIC in [29] was determined as 0.41 µg/mL (≈ 1.01 µM); in series [30] it was 0.8 µg/mL (≈ 1.97 µM); in [31] it was 1.3 µg/mL (≈ 3.21 µM); in series [32] it was 0.13 µg/mL (≈ 0.321 µM); in series [33], 0.8 µg/mL (≈ 1.97 µM); in [35], 0.16 µg/mL (≈ 0.395 µM). Besides, the values for the MIC in [36] and in series [38] were 0.6 µg/mL (≈ 1.48 µM) and 0.02 µg/mL (≈ 0.0493 µM), respectively. Further, the Antibacterial activity entry in series [11] is “satisfactory antibacterial activity”; in [23], “active upon Gram-positive and Gram-negative bacteria; also recorded: wide range of activity”; in series [28], “strong antibacterial activity”; in series [34], “strong antibacterial activity”. In [19] (Escherichia coli, JUHLKY4286, sc), this molecule gave an ED50 of 6 mg/kg. The Therapeutic effects entry in series [19] (therapy of infectious diseases caused by the tested bacteria) is reported as “remarkable therapeutic effects”. In addition, in series [37] (chloroform, benzene, ethyl acetate, butyl acetate, ethyl ether, butanol, petroleum ether, n-hexane, etc., free base), the “Solubility in organic solvents” value is “insoluble”. Moreover, in series [37] (ethanol and acetone, free base), the “Solubility in ethanol and acetone” value is “slightly soluble”. Also, the Solubility in methanol result in [37] (methanol, free base) is reported as “soluble”. In [37] (ordinary organic solvents), the “Solubility in the ordinary organic solvents” value is “poorly soluble”. Moreover, the Solubility in water result in series [37] (water, free base) is recorded as “soluble; also recorded: very soluble”.

Regarding `CNC1C(O)C(OC2OC(C(C)N)CCC2N)C(N)C(O)C1OC` (centres unmarked) [Fortimicin B], the Antibacterial activity entry in [23] is “activity against Gram-positive and Gram-negative bacteria”.

The record behind these values is US3976768A, “Fortimicin A” (Abbott Laboratories, priority 1973, dated 1976).
